Reference: PubChem BioAssay AID2060893 (Molecular Pharmacology Branch, DTP, NCI, 2025)

System: K86415-001-R-J1-PDC complex spheroids, viability
Test: Anticancer human tumor K86415-001-R-J1-PDC patient-derived lung adenocarcinoma cell line growth inhibition [RAS]
Settings: for IC50: curve of first compound; for viability, T/C: stronger effect = lower value
From the text: RAS pathway inhibitors in Combinations in Complex Spheroids
A high-throughput screen of multi-cell type tumor spheroids was designed to identify active combinations of RAS pathway inhibitors and targeted small molecules. Complex spheroids include a stromal component modeled by human endothelial cells (HUVEC) and fibroblasts modeled by human mesenchymal stem cells (MSCs). The concentration ranges selected for each drug and investigational agent were based upon clinically achievable concentrations if the clinical Cmax of the agent was known.
Compounds. The drugs and investigational agents: abemaciclib (NSC768073), cobimetinib (NSC768068), divarasib (GDC6063, NSC841802), docetaxel (NSC628503), GDC-1971 (RLY-1971, NSC841576), gemcitabine (NSC613327), inavolisib (NSC800729), ipatasertib (NSC767898), KB-0742 (NSC834161), MRTX-1133 (NSC836407), osimertinib (NSC779217), RMC-4630 (NSC839698), RMC-6236 (NSC851965), RMC-6291 (NSC852671), Ro-3306 (NSC812927), sapanisertib (NSC764658), SN-38 (NSC673596), staurosporine (NSC755774), SY5609 (NSC837396), and tovorafenib (DAY101, NSC766906), were obtained from the National Cancer Institute (NCI) Developmental Therapeutics Program Chemical Repository. The FDA-approved anticancer drug set is available from the NCI Developmental Therapeutics Program. […] The stock solutions were prepared in dimethyl sulfoxide (DMSO, Sigma-Aldrich, St. Louis, MO, cat. D2650) at 800-fold the tested concentration and stored at -70 degrees C prior to their use. All drugs and investigational agents were tested over a range starting from a high concentration at or near the clinical Cmax and decreasing in half-log increments. If the clinical Cmax for an agent had not been determined, the highest concentration tested was 10 microM.
Cell Culture. All cells were maintained in an incubator at 37 degrees C and 5% CO2 with 95% humidity. The PDC lines were cultured according to standard operating procedures established by the NCI PDMR. All PDCs were thawed and cultured in Matrigel-coated flasks prepared with a working solution of 1X Ham's F-12 nutrient mix, without supplementation (Invitrogen, Waltham, MA, cat. 11765054), 100 U/mL penicillin-streptomycin (Invitrogen, cat. 15140122), and 2.5% Matrigel (Corning Inc., Corning, NY, cat. 354248) for the first three passages. The 362531-283-R-J2-PDC and 782815-120-R-J1-PDC lines were cultured in 6C/Colon 1B media, which includes advanced DMEM/F-12 (Thermo Fisher Scientific, cat. 12634028), 10 mM HEPES (Thermo Fisher Scientific, cat. 15630080), 1X GlutaMAX supplement (Thermo Fisher Scientific, cat. 35050061), 0.1 mg/mL primocin (InvivoGen, San Diego, CA, cat. ant-pm-2), 10% defined fetal bovine serum, heat inactivated (HyClone Laboratories Inc., Logan, UT, cat. SH30070.03HI), 50% L-WRN conditioned media (ATCC, cat. CRL-3276), 1.25 mM N-Acetyl-L-cysteine (Sigma-Aldrich, cat. A9165), 10 mM nicotinamide (Sigma-Aldrich, cat. N0636), 1X B-27 supplement (Thermo Fisher Scientific, cat. 17504044), 1X N-2 supplement (Thermo Fisher Scientific, cat. 17502048), 50 ng/mL human EGF (Thermo Fisher Scientific, cat. PHG0311), and 10 microM Y-27632 dihydrochloride (Tocris Bioscience, cat. 1254). The K12877-001-R-J1-PDC line was cultured in 6I media, which includes all 6C/Colon 1B media plus 10 ng/mL human FGF-10 (PeproTech, cat. 100-26), 1 ng/mL human FGF-2 (PeproTech, cat. 100-18B), 1 µM prostaglandin E2 (Tocris Bioscience, cat. 2296), […] hydrocortisone (Sigma-Aldrich, cat. H4001), and […] bovine insulin (Sigma-Aldrich, cat. I6634). The K86415-001-R-J1-PDC line was cultured in 6D media, which includes all 6C/Colon 1B media components minus the L-WRN conditioned media. The 485176-168-R4-J1-PDC was cultured in PANC media, which includes all 6C/Colon 1B media plus 100 ng/mL human FGF-10 (PeproTech, cat. 100-26), 500 nM SB-431542 (Selleckchem, cat. S1067), and 10 nM gastrin (Tocris Bioscience, cat. 3006). […]
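Also: spheroids exposed to agents for seven days before readout.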

SMILES: CCC(CC)c1cc(NC2CCC(N)C2)n2nccc2n1 (configuration not stated) + C=CC(=O)N1CCN(c2nc(OCC3CCCN3C)nc3c(F)c(-c4nc(N)cc(C)c4C(F)(F)F)c(Cl)cc23)C(C)C1
- IC50 (second compound 0.00316 µM): < 31.6 nM
- IC50 (second compound 0.01 µM): < 31.6 nM
- IC50 (second compound 0.0316 µM): < 31.6 nM
- IC50 (second compound 0.1 µM): < 31.6 nM
- IC50 (second compound 0.316 µM): < 31.6 nM
- IC50 (second compound 1 µM): < 31.6 nM
- viability, T/C (second compound 0.00316 µM, first compound 0.0316 µM): 21.7%
- viability, T/C (second compound 0.00316 µM, first compound 0.1 µM): 20.9%
- viability, T/C (second compound 0.00316 µM, first compound 0.316 µM): 26.4%
- viability, T/C (second compound 0.00316 µM, first compound 1 µM): 45.6%
- viability, T/C (second compound 0.00316 µM, first compound 3.16 µM): 2.88%
- viability, T/C (second compound 0.00316 µM, first compound 10 µM): 3.26%
- viability, T/C (second compound 0.01 µM, first compound 0.0316 µM): 13.3%
- viability, T/C (second compound 0.01 µM, first compound 0.1 µM): 12.7%
- viability, T/C (second compound 0.01 µM, first compound 0.316 µM): 16.9%
- viability, T/C (second compound 0.01 µM, first compound 1 µM): 23.3%
- viability, T/C (second compound 0.01 µM, first compound 3.16 µM): 2.98%
- viability, T/C (second compound 0.01 µM, first compound 10 µM): 2.44%
- viability, T/C (second compound 0.0316 µM, first compound 0.0316 µM): 10.7%
- viability, T/C (second compound 0.0316 µM, first compound 0.1 µM): 13.9%
- viability, T/C (second compound 0.0316 µM, first compound 0.316 µM): 11.7%
- viability, T/C (second compound 0.0316 µM, first compound 1 µM): 15.9%
- viability, T/C (second compound 0.0316 µM, first compound 3.16 µM): 3.17%
- viability, T/C (second compound 0.0316 µM, first compound 10 µM): 2.7%
- viability, T/C (second compound 0.1 µM, first compound 0.0316 µM): 10.3%
- viability, T/C (second compound 0.1 µM, first compound 0.1 µM): 12%
- viability, T/C (second compound 0.1 µM, first compound 0.316 µM): 12.8%
- viability, T/C (second compound 0.1 µM, first compound 1 µM): 13.7%
- viability, T/C (second compound 0.1 µM, first compound 3.16 µM): 3.12%
- viability, T/C (second compound 0.1 µM, first compound 10 µM): 2.45%
- viability, T/C (second compound 0.316 µM, first compound 0.0316 µM): 11.8%
- viability, T/C (second compound 0.316 µM, first compound 0.1 µM): 14%
- viability, T/C (second compound 0.316 µM, first compound 0.316 µM): 12%
- viability, T/C (second compound 0.316 µM, first compound 1 µM): 17.7%
- viability, T/C (second compound 0.316 µM, first compound 3.16 µM): 2.62%
- viability, T/C (second compound 0.316 µM, first compound 10 µM): 3.41%
- viability, T/C (second compound 1 µM, first compound 0.0316 µM): 10.5%
- viability, T/C (second compound 1 µM, first compound 0.1 µM): 13.1%
- viability, T/C (second compound 1 µM, first compound 0.316 µM): 15.1%
- viability, T/C (second compound 1 µM, first compound 1 µM): 14.7%
- viability, T/C (second compound 1 µM, first compound 3.16 µM): 3.95%
- viability, T/C (second compound 1 µM, first compound 10 µM): 4.47%
